# Measurements reported in the supplement of paper PMC10307832.
# Experiments:
# Assay in all cases: relative viability (nuclei count vs DMSO), 5 days (fraction); higher = more cells survive
# Apatinib + Linsitinib = compound: N#CC1(c2ccc(NC(=O)c3cccnc3NCc3ccncc3)cc2)CCCC1 [Apatinib] + C[C@]1(O)C[C@@H](c2nc(-c3ccc4ccc(-c5ccccc5)nc4c3)c3c(N)nccn32)C1 [Linsitinib] (partner 1 µM)
# Summary of the method: (§1)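 A single step with final 0.05% Triton X-100, 1% formaldehyde and 1 ug/ml Hoechst fixed the cells and stained nuclei 5 days after treatment. Lung cancer cell lines in 1536-well plates had been treated by pin tool the day after seeding with one drug alone or a fixed anchor-drug dose plus five library-drug doses (not always all listed) in √10 steps, and nuclei were counted on 4× images. Relative viability is the ratio of nuclei in treated wells to nuclei in vehicle wells, taken as the median of duplicate plates.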
# Apatinib + Crizotinib = compound: N#CC1(c2ccc(NC(=O)c3cccnc3NCc3ccncc3)cc2)CCCC1 [Apatinib] + C[C@@H](Oc1cc(-c2cnn(C3CCNCC3)c2)cnc1N)c1c(Cl)ccc(F)c1Cl [Crizotinib] (partner 1 µM)
# Summary of the method: as §1
# Metformin + Palbociclib = compound: CN(C)C(=N)NC(=N)N [Metformin] + CC(=O)c1c(C)c2cnc(Nc3ccc(N4CCNCC4)cn3)nc2n(C2CCCC2)c1=O [Palbociclib] (partner 0.5 µM)
# Summary of the method: as §1
# Metformin + Navitoclax = compound: CN(C)C(=N)NC(=N)N [Metformin] + CC1(C)CCC(c2ccc(Cl)cc2)=C(CN2CCN(c3ccc(C(=O)NS(=O)(=O)c4ccc(N[C@H](CCN5CCOCC5)CSc5ccccc5)c(S(=O)(=O)C(F)(F)F)c4)cc3)CC2)C1 [Navitoclax] (partner 0.5 µM)
# Summary of the method: as §1
Cell Line,relative viability (Apatinib + Linsitinib; first compound 0.08 µM),relative viability (Apatinib + Linsitinib; first compound 0.253 µM),relative viability (Apatinib + Linsitinib; first compound 0.8 µM),relative viability (Apatinib + Linsitinib; first compound 2.53 µM),relative viability (Apatinib + Linsitinib; first compound 8 µM),relative viability (Apatinib + Crizotinib; first compound 0.08 µM),relative viability (Apatinib + Crizotinib; first compound 0.253 µM),relative viability (Apatinib + Crizotinib; first compound 0.8 µM),relative viability (Apatinib + Crizotinib; first compound 2.53 µM),relative viability (Apatinib + Crizotinib; first compound 8 µM),relative viability (Metformin + Palbociclib; first compound 10 µM),relative viability (Metformin + Palbociclib; first compound 31.62 µM),relative viability (Metformin + Palbociclib; first compound 100 µM),relative viability (Metformin + Palbociclib; first compound 316.23 µM),relative viability (Metformin + Palbociclib; first compound 1000 µM),relative viability (Metformin + Navitoclax; first compound 10 µM),relative viability (Metformin + Navitoclax; first compound 31.62 µM),relative viability (Metformin + Navitoclax; first compound 100 µM),relative viability (Metformin + Navitoclax; first compound 316.23 µM),relative viability (Metformin + Navitoclax; first compound 1000 µM)
NCI-H358,0.868,0.777,0.731,0.627,0.703,0.682,0.586,0.525,0.54,0.43,0.114,0.125,0.122,0.138,0.141,,,,,
NCI-H1793,0.974,0.931,0.716,0.599,0.685,,,,,,0.297,0.39,0.387,0.353,0.361,0.335,0.395,0.482,0.442,0.489
SW 900,,,,,,,,,,,0.542,0.536,,0.497,0.578,,,,,
LCLC-103H,1.1,1.05,1.06,1.09,0.993,1.02,1.05,1.01,0.97,1.07,0.465,0.561,0.532,0.437,0.495,,,,,
IA-LM,0.56,0.383,0.763,0.417,0.341,0.857,0.615,0.697,0.694,0.192,,,,,,,0.93,0.941,0.686,0.645
NCI-H1395,1.19,1.08,1.16,1.07,0.847,,,,,,0.504,0.716,0.627,0.508,0.448,1.11,1.32,1.06,0.958,1.1
NCI-H661,0.526,0.578,0.648,0.596,0.52,1.02,1.03,1.02,0.934,0.916,0.382,0.391,0.371,0.37,0.365,,,,,
NCI-H2342,,,,,,,,,,,,0.681,0.548,0.522,0.519,,,,,
NCI-H1648,,,,,,,,,,,,0.299,0.296,0.294,0.294,,,,,
EBC-1,0.935,0.981,0.955,0.685,0.567,0.211,0.185,0.178,0.211,0.208,,,,,,0.364,0.405,0.356,0.362,0.442
ABC-1,,0.861,0.869,0.839,0.882,,1.42,1.11,0.932,0.614,,0.9,0.62,0.592,0.279,,,,,
NCI-H1703,0.458,0.657,0.441,0.0986,0.132,0.359,0.464,0.347,0.194,0.15,,,,,,1.18,1.15,1.16,0.854,0.735
NCI-H1563,1.28,1.22,1.13,1.12,1.03,0.824,0.848,0.864,0.851,0.797,,,,,,,,,,
NCI-H596,1.23,1.05,1.02,0.994,0.795,0.923,1.12,1.07,0.861,0.969,,,,,,0.985,1.15,1.1,0.908,1
Calu-6,0.948,1,0.912,0.928,0.85,0.789,0.855,0.726,0.599,0.594,,,,,,0.726,0.784,0.855,0.7,0.619
NCI-H1299,0.989,0.984,0.958,0.853,0.77,0.998,0.974,0.517,0.961,0.77,,,,,,1.12,1.11,1.15,1.15,1.12
A549,0.534,0.647,0.686,0.649,0.563,0.818,0.917,0.737,0.61,0.56,,,,,,0.895,1.03,1.04,0.843,0.297
NCI-H522,,,,,,,,,,,1.7,1.24,1.06,1.08,1.21,,,,,
NCI-H2170,,,,,,1.23,1.22,1.11,1.12,1.07,0.334,0.389,0.386,0.354,0.391,0.579,0.526,0.575,0.497,0.507
NCI-H1650,,,,,,1.13,1.03,0.9,0.92,0.842,0.316,0.381,0.424,0.229,0.305,1.16,1.34,1.46,1.37,1.1
